Measured values published in patent publication US9611256B2, “Alkyne-, azide- and triazole-containing flavonoids as modulators for multidrug resistance in cancers” (The Hong Kong Polytechnic University, priority 2012, dated 2017).

Tests used:
in vitro = conditions: mouse
MRP1 [1] = target: T1, MRP1 (Homo sapiens, UniProt P33527); assay: cell-based
[2] = system: P-gp, MRP1 and BCRP transporters; assay: Selectivity for ABC transporters, determined from % of reversion (Tables 1 and 2); assay type: cell-based, human; conditions: determined from % of reversion in Table 1 (>80% strongly, 79-50% moderately selective)
Source text: Generally, the triazole dimers library can be divided into mono-selective, dual-selective and multi-selective ABC transporter modulators. Table 2 summarizes the selectivity of different active triazole dimers and some monomeric azides for the ABC transporters. […] From the study, it seems that the simple monomeric azides could be a highly BCRP-selective inhibitor. […] It is possible that differently selective (mono-, dual- and multi-) inhibitors of drug transporters could be potentially useful tools for investigation of complicated drug-resistance phenotypes and eventually, for treatment of drug-resistant cancers caused by overexpression of ABC transporters.
The selectivity of active triazole compounds for various ABC transporters was determined from the Table 1. It would be considered as strongly selective if it causes >80% of reversion. It would be considered as moderately selective if it results in 79-50% of reversion. Overall, the active triazole compounds can be divided into mono-, dual- and multi-selective for P-gp, MRP1 and BCRP transporters.

BCRP [3] = target: T2, BCRP (Homo sapiens, UniProt Q9UNQ0); assay: cell-based
T2 sequence (Q9UNQ0 1-655): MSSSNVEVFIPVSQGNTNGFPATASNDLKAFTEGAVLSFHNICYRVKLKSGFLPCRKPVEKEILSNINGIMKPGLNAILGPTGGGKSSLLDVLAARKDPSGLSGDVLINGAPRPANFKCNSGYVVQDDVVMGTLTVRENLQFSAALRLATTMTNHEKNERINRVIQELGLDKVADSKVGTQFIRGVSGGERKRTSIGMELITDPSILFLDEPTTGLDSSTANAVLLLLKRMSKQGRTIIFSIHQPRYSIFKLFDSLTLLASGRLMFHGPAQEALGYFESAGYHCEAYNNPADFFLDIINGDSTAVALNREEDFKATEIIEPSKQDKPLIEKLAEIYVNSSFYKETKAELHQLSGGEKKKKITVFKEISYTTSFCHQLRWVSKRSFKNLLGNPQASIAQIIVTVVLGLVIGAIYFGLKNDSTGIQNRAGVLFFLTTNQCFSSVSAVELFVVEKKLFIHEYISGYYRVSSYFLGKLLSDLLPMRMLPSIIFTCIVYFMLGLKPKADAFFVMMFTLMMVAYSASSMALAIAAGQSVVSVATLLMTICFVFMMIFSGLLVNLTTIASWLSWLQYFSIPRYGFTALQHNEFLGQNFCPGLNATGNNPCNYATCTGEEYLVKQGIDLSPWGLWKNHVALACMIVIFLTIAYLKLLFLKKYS

BCRP [4] = target: T2, BCRP; assay: Reversal of BCRP-mediated topotecan resistance in MCF7-MX100 cells (cell proliferation assay); conditions: for Topotecan resistance of MCF7-MX100 Therapeutic index: (IC50 towards L929 or Raw264.7)/(EC50 for reversing drug resistance); for % of reversion of sensitivity of MCF7-MX100 towards topotecan: triazole dimers at 1.0 μM
MRP1 [5] = target: T1, MRP1; assay: Reversal of MRP1-mediated DOX resistance in 2008/MRP1 cells (cell proliferation assay); conditions: for DOX resistance of 2008/MRP1 Therapeutic index: (IC50 towards L929 or Raw264.7)/(EC50 for reversing drug resistance)
MRP1 [6] = target: T1, MRP1; assay: Reversal of MRP1-mediated vincristine resistance in 2008/MRP1 cells (cell proliferation assay); conditions: (IC50 towards L929 or Raw264.7)/(EC50 for reversing drug resistance)

T1 sequence (P33527 whole entry): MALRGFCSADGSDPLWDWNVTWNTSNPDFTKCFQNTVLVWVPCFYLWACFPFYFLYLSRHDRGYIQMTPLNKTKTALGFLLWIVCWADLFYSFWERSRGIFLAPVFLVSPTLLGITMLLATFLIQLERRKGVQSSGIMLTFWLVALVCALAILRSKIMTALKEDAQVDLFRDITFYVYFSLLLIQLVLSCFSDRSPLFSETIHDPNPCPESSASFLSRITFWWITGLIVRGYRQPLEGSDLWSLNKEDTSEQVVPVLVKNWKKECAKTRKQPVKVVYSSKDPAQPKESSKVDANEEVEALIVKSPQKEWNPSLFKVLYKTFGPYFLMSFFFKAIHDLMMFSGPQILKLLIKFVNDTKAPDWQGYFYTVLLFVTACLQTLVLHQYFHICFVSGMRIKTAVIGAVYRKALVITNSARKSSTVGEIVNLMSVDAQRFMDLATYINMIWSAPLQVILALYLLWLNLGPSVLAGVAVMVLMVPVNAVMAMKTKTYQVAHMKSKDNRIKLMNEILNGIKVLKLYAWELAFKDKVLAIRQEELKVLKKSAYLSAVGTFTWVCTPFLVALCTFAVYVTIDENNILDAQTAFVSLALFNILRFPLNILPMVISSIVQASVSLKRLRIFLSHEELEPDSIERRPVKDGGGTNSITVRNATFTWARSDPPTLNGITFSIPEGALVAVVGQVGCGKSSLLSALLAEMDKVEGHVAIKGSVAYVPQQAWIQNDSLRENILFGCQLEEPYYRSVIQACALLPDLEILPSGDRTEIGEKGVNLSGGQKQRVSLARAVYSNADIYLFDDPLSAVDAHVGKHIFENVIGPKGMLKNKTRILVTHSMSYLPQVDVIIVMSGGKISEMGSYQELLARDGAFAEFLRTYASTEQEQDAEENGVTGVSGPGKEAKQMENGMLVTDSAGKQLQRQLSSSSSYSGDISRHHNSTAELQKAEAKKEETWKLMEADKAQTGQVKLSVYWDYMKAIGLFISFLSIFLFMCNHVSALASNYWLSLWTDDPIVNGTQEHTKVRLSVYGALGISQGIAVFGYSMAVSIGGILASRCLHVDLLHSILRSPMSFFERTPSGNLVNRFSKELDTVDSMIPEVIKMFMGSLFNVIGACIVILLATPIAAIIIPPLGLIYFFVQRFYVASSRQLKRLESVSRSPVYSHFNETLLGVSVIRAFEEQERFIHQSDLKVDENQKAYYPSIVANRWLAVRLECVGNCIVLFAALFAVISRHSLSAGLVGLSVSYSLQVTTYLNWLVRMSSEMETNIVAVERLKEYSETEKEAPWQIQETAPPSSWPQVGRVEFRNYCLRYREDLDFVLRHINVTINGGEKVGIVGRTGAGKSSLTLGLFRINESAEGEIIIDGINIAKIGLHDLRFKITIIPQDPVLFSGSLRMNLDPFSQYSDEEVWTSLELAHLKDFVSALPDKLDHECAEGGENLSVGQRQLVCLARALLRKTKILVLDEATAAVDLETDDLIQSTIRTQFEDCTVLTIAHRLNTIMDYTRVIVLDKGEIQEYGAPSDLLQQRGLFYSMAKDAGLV

| Structure (SMILES) | IC50 at 5 days (in vitro) | EC50 (MRP1 [1]) | Selectivity for ABC transporters (P-gp, MRP1, BCRP) [2] | EC50 (BCRP [3]) | Topotecan resistance of MCF7-MX100 Therapeutic index (BCRP [4]) | % of reversion of sensitivity of MCF7-MX100 towards topotecan (BCRP [4]) | DOX resistance of 2008/MRP1 Therapeutic index (MRP1 [5]) | Vincristine resistance of 2008/MRP1 Therapeutic index (MRP1 [6]) | % of reversion of sensitivity of 2008/MRP1 towards DOX (MRP1 [5]; triazole dimers at 1.0 μM) |
| --- | --- | --- | --- | --- | --- | --- | --- | --- | --- |
| O=c1cc(-c2ccc(OCCCc3cn(CCOCCOc4ccc(-c5cc(=O)c6ccccc6o5)cc4)nn3)cc2)oc2ccccc12 [Ac1Az1, 2-(4-(3-(1-(2-(2-(4-(4-Oxo-4H-chromen-2-yl)phenoxy)ethoxy)ethyl)-1H-1,2,3-triazol-4-yl)propoxy)phenyl)-4H-chromen-4-one] | 60.2 ± 16.3 µM | 128 ± 32.5 nM | – | – | – | – | – | – | – |
| O=c1cc(-c2ccc(OCCOCCn3cc(CCCOc4ccc5c(=O)cc(-c6ccccc6)oc5c4)nn3)cc2)oc2ccccc12 [Ac2Az1, 7-(3-(1-(2-(2-(4-(4-Oxo-4H-chromen-2-yl)phenoxy)ethoxy)ethyl)-1H-1,2,3-triazol-4-yl)propoxy)-2-phenyl-4H-chromen-4-one] | > 100 µM | 145 ± 25 nM | – | – | – | – | – | – | – |
| Cc1ccc2oc(-c3ccc(OCCCCc4cn(CCOCCOc5ccc(-c6cc(=O)c7ccccc7o6)cc5)nn4)cc3)cc(=O)c2c1 [Ac5Az1, 6-Methyl-2-(4-(4-(1-(2-(2-(4-(4-oxo-4H-chromen-2-yl)phenoxy)ethoxy)ethyl)-1H-1,2,3-triazol-4-yl)butoxy)phenyl)-4H-chromen-4-one] | > 57 µM | 250 nM | – | – | – | – | – | – | – |
| COC(=O)c1cccc(COc2c(-c3ccc(OCCOCCOCCn4cc(CCCCOc5ccc(-c6cc(=O)c7cc(C)ccc7o6)cc5)nn4)cc3)oc3ccccc3c2=O)c1 [Ac5Az9, Methyl 3-(((2-(4-(2-(2-(2-(4-(4-(4-(6-methyl-4-oxo-4H-chromen-2-yl)phenoxy)butyl)-1H-1,2,3-triazol-1-yl)ethoxy)ethoxy)ethoxy)phenyl)-4-oxo-4H-chromen-3-yl)oxy)methyl)benzoate] | > 100 µM | – | multi-selectivity towards P-gp, MRP1 and BCRP transporters | ≤ 10 nM | >111111.1 | about 64.0% | – | – | – |
| O=c1cc(-c2ccc(OCCOCCOCCn3cc(CCCCOc4ccc5c(=O)cc(-c6ccccc6)oc5c4)nn3)cc2)oc2ccccc12 [Ac12Az2, 7-(4-(1-(2-(2-(2-(4-(4-Oxo-4H-chromen-2-yl)phenoxy)ethoxy)ethoxy)ethyl)-1H-1,2,3-triazol-4-yl)butoxy)-2-phenyl-4H-chromen-4-one] | > 50 µM | – | MRP1- and BCRP-dual selectivity | – | – | – | >298.5 | >377.9 | – |
| O=c1cc(-c2ccccc2)oc2cc(OCCCCc3cn(CCOCCOCCOc4ccc(-c5cc(=O)c6cc(F)ccc6o5)cc4)nn3)ccc12 [Ac12Az4, 6-Fluoro-2-(4-(2-(2-(2-(4-(4-((4-oxo-2-phenyl-4H-chromen-7-yl)oxy)butyl)-1H-1,2,3-triazol-1-yl)ethoxy)ethoxy)ethoxy)phenyl)-4H-chromen-4-one] | > 100 µM | – | MRP1- and BCRP-dual selectivity | – | – | – | >525.5 | >736.9 | – |
| COC(=O)c1cccc(COc2c(-c3ccc(OCCOCCn4cc(CCCCOc5ccc6c(=O)cc(-c7ccccc7)oc6c5)nn4)cc3)oc3ccccc3c2=O)c1 [Ac12Az8, Methyl 3-(((4-oxo-2-(4-(2-(2-(4-(4-((4-oxo-2-phenyl-4H-chromen-7-yl)oxy)butyl)-1H-1,2,3-triazol-1-yl)ethoxy)ethoxy)phenyl)-4H-chromen-3-yl)oxy)methyl)benzoate] | > 100 µM | – | multi-selectivity towards P-gp, MRP1 and BCRP transporters | ≤ 10 nM | >17857.1 | about 80.0% | – | – | – |
| COC(=O)c1cccc(COc2c(-c3ccc(OCCOCCOCCn4cc(CCCCOc5ccc6c(=O)cc(-c7ccccc7)oc6c5)nn4)cc3)oc3ccccc3c2=O)c1 [Ac12Az9, Methyl 3-(((4-oxo-2-(4-(2-(2-(2-(4-(4-((4-oxo-2-phenyl-4H-chromen-7-yl)oxy)butyl)-1H-1,2,3-triazol-1-yl)ethoxy)ethoxy)ethoxy)phenyl)-4H-chromen-3-yl)oxy)methyl)benzoate] | > 100 µM | – | multi-selectivity towards P-gp, MRP1 and BCRP transporters | ≤ 10 nM | >71428.6 | about 80.0% | – | – | – |
| COC(=O)c1cccc(COc2c(-c3ccc(OCCOCCn4cc(COCCOc5ccc6c(=O)cc(-c7ccccc7)oc6c5)nn4)cc3)oc3ccccc3c2=O)c1 [Ac13Az8, Methyl 3-(((4-oxo-2-(4-(2-(2-(4-((2-((4-oxo-2-phenyl-4H-chromen-7-yl)oxy)ethoxy)methyl)-1H-1,2,3-triazol-1-yl)ethoxy)ethoxy)phenyl)-4H-chromen-3-yl)oxy)methyl)benzoate] | > 100 µM | – | MRP1- and BCRP-dual selectivity | ≤ 10 nM | >16666.7 | about 80.0% | – | – | about 55.9% |
| COC(=O)c1cccc(COc2c(-c3ccc(OCCOCCOCCn4cc(COCCOc5ccc6c(=O)cc(-c7ccccc7)oc6c5)nn4)cc3)oc3ccccc3c2=O)c1 [Ac13Az9] | > 100 µM | – | Pgp- and BCRP-dual selectivity | ≤ 10 nM | >50000.0 | about 80.0% | – | – | – |
| COC(=O)c1cccc(COc2c(-c3ccc(OCCOCCn4cc(CN(Cc5ccccc5)Cc5cn(CCOCCOc6ccc(-c7oc8ccccc8c(=O)c7OCc7cccc(C(=O)OC)c7)cc6)nn5)nn4)cc3)oc3ccccc3c2=O)c1 [Ac15Az8, Dimethyl 3,3′-(((2,2′-((((((4,4′-((benzylazanediyl)bis(methylene))bis(1H-1,2,3-triazole-4,1-diyl))bis(ethane-2,1-diyl))bis(oxy))bis(ethane-2,1-diyl))bis(oxy))bis(4,1-phenylene))bis(4-oxo-4H-chromene-3,2-diyl))bis(oxy))bis(methylene))dibenzoate] | > 100 µM | – | mono-BCRP selectivity | ≤ 10 nM | >76923.1 | – | – | – | – |
| COC(=O)c1cccc(COc2c(-c3ccc(OCCOCCOCCn4cc(CN(Cc5ccccc5)Cc5cn(CCOCCOCCOc6ccc(-c7oc8ccccc8c(=O)c7OCc7cccc(C(=O)OC)c7)cc6)nn5)nn4)cc3)oc3ccccc3c2=O)c1 [Ac15Az9, Dimethyl 3,3′-(((2,2′-((((((((4,4′-((benzylazanediyl)bis(methylene))bis(1H-1,2,3-triazole-4,1-diyl))bis(ethane-2,1-diyl))bis(oxy))bis(ethane-2,1-diyl))bis(oxy))bis(ethane-2,1-diyl))bis(oxy))bis(4,1-phenylene))bis(4-oxo-4H-chromene-3,2-diyl))bis(oxy))bis(methylene))dibenzoate] | > 100 µM | – | mono-BCRP selectivity | ≤ 10 nM | >50000.0 | – | – | – | – |
| O=c1cc(-c2ccccc2)oc2cc(OCCN(Cc3ccccc3)Cc3cn(CCOCCOc4ccc(-c5cc(=O)c6cc(F)ccc6o5)cc4)nn3)ccc12 [Ac16Az7, 7-(2-(Benzyl((1-(2-(2-(4-(6-fluoro-4-oxo-4H-chromen-2-yl)phenoxy)ethoxy)ethyl)-1H-1,2,3-triazol-4-yl)methyl)amino)ethoxy)-2-phenyl-4H-chromen-4-one] | > 100 µM | 123 ± 13 nM | – | – | – | – | – | – | – |
| COC(=O)c1cccc(COc2c(-c3ccc(OCCOCCOCCN=[N+]=[N-])cc3)oc3ccccc3c2=O)c1 [Az9, Methyl 3-(((2-(4-(2-(2-(2-azidoethoxy)ethoxy)ethoxy)phenyl)-4-oxo-4H-chromen-3-yl)oxy)methyl)benzoate] | 20.6 µM | – | mono-BCRP selectivity | ≤ 10 nM | 2019.6 | – | – | – | – |
